Test results as given in patent US20220380370A1 (Goldfinch Bio, Inc., priority 2019, published 2022).

target: T1, CB1 receptor (Homo sapiens, UniProt P21554); experiment: CB1 cAMP antagonist assay (LANCE Ultra cAMP kit); format: cell-based; details: CHO cells stably expressing the CB1 receptor; forskolin and agonist CP55940 at EC90
T1 construct: Perkin Elmer (CB1-CHO cells); host or cells: Flp-In CHO cells or CB1-CHO cells, stably expressing
From the text: LANCE Ultra cAMP kit (Perkin Elmer) was used to quantitate the amount of 3′,5′-cyclic adenosine monophosphate (cAMP) produced in Flp-In CHO cells (Invitrogen) stably expressing the CB1 receptor, CB1-CHO cells (Perkin Elmer) stably expressing the CB1 receptor, or CB2-CHO cells (Perkin Elmer) stably expressing the CB2 receptor.
Forskolin was initially titrated to determine the response of the cells. The EC90 of forskolin was used for compound testing. CP55940 was titrated and used with EC90 of forskolin to determine the level of agonist stimulation. EC90 of the agonist was used for subsequent compound testing. For the CB1 assay, Forskolin (Sigma), CP55940 (Cayman Chemicals), and AM251 (MCE) were diluted in 100% DMSO, starting at 100 mM, 1 mM, and 1 mM respectively, in 3-fold serial dilutions. For the CB2 assay, Forskolin (Sigma), CP55940 (Cayman Chemicals), and AM630 (MCE) were diluted in 100% DMSO, starting at 100 mM, 1 mM, and 30 mM respectively, in 3-fold serial dilutions. Test compounds were diluted in 100% DMSO starting from 10 mM, 3-fold dilutions. The cAMP assay buffer contains 1× Hank's Buffered Saline Solution with Ca^2+ and Mg^2+ (Invitrogen), 5.3 mM HEPES (Invitrogen), 0.05% BSA, 0.5 mM IBMX (Sigma). For all assays, cells were harvested, counted, and diluted in cAMP assay buffer to 1×10^5 cells/mL. Only cells with viability >85% were used for the assay. Cells were seeded at 1000 cells/well in 384-well plates and 10 nL/well AM251 (for CB1), AM630 (for CB2) or test compound was added and incubated at 37° C. for 10 min. Then forskolin and agonist were added to reach their EC90 and incubated at 25° C. for 30 min. To detect the amount of cAMP produced, 5 μL of a 100× diluted stock of Eu-cAMP tracer and 5 μL of 200× diluted stock of Ulight-anti-cAMP were added to each well, and the plate incubated at 25° C. for 15 min. The FRET signal was read using an EnVision microplate reader (λex=320 nm, λem=615 nm and 665 nm). The results are expressed as % Inhibition, where % inhibition=100−100×(U−C2)/(C1−C2), where U is the FRET ratio (λem (665 nm)/λem (615 nm)) of sample, C1 is the average of the high controls (signal with no antagonist added), and C2 is the average of low controls (signal with the highest concentration of AM251 or AM630 antagonist). The IC50 is determined by fitting the percentage of inhibition as a function of compound concentrations with the Hill equation, using a 4-parameter fit in either XLfit or GraphPad Prism.

T1 sequence (P21554 whole entry): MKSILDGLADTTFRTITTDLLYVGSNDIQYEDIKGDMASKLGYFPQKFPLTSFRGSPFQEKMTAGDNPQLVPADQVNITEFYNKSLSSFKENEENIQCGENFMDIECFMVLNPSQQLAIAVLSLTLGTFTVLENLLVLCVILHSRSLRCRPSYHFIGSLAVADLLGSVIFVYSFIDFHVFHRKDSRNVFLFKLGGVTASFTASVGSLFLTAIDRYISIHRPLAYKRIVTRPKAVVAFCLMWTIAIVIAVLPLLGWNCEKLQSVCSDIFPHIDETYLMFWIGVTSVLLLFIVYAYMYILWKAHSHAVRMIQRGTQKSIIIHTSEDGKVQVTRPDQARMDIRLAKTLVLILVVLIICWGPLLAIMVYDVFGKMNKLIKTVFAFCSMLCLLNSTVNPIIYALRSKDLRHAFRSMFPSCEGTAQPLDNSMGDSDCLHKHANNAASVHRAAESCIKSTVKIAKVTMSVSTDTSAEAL

Compared with CC(=O)N1CCC(Cn2c(=O)n(C[C@@H](O)CO)c(=O)c3c2nc(-c2ccccc2Cl)n3-c2ccc(Cl)cc2)CC1 [Compound 130, (R)-3-[(1-acetylpiperidin-4-yl)methyl]-8-(2-chlorophenyl)-7-(4-chlorophenyl)-1-[2,3-dihydroxypropyl]purine-2,6-dione], CS(=O)(=O)N1CCC(Cn2c(=O)n(CC(N)=O)c(=O)c3c2nc(-c2ccccc2Cl)n3-c2ccc(Cl)cc2)CC1 [Compound 158] is lower in IC50: 100 to 1000 nM for the first, under 100 nM for the second.

Compared with NC(=O)Cn1c(=O)c2c(nc(-c3ccccc3Cl)n2-c2ccc(Cl)cc2)n(C2CCOCC2)c1=O [Compound 133], C[C@H](C(N)=O)n1c(=O)c2c(nc(-c3ccccc3Cl)n2-c2ccc(Cl)cc2)n(C2CCOCC2)c1=O [Compound 137] is higher in IC50: under 100 nM for the first, 100 to 1000 nM for the second. The first is the more potent here.

C[C@@H](C(N)=O)n1c(=O)c2c(nc(-c3ccccc3Cl)n2-c2ccc(Cl)cc2)n(CC2CCOCC2)c1=O [Compound 139] and C[C@@H](Cn1c(=O)c2c(nc(-c3ccccc3Cl)n2-c2ccc(Cl)cc2)n(CC2CCS(=O)(=O)CC2)c1=O)C(N)=O [Compound 174, (2S)-3-[8-(2-chlorophenyl)-7-(4-chlorophenyl)-3-[(1,1-dioxo-1λ^6-thian-4-yl)methyl]-2,6-dioxopurin-1-yl]-2-methylpropanamide] cannot be ordered by IC50: under 100 nM for the first, under 100 nM for the second.

NC(=O)Cn1c(=O)c2c(nc(-c3ccccc3Cl)n2-c2ccc(Cl)cc2)n(Cc2ccc([C@H]3COCCO3)cc2)c1=O [Compound 141, 2-[8-(2-chlorophenyl)-7-(4-chlorophenyl)-3-([4-[(2S)-1,4-dioxan-2-yl]phenyl]methyl)-2,6-dioxopurin-1-yl]acetamide] and NC(=O)Cn1c(=O)c2c(nc(-c3ccccc3Cl)n2-c2ccc(Cl)cc2)n(Cc2ccc([C@@H]3COCCO3)cc2)c1=O [Compound 145, 2-[8-(2-chlorophenyl)-7-(4-chlorophenyl)-3-([4-[(2R)-1,4-dioxan-2-yl]phenyl]methyl)-2,6-dioxopurin-1-yl]acetamide] cannot be ordered by IC50: under 100 nM for the first, under 100 nM for the second.

NC(=O)Cn1c(=O)c2c(nc(-c3ccccc3Cl)n2-c2ccc(Cl)cc2)n(Cc2ccc(CC3COCCO3)cc2)c1=O (stereo not shown) [Compound 143] and NC(=O)Cn1c(=O)c2c(nc(-c3ccccc3Cl)n2-c2ccc(Cl)cc2)n(Cc2ccc(S(N)(=O)=O)cc2)c1=O [Compound 153] cannot be ordered by IC50: under 100 nM for the first, under 100 nM for the second.

First: Cn1c(=O)[nH]c2nc(-c3ccccc3Cl)n(-c3ccc(Cl)cc3)c2c1=O [Compound 147, 8-(2-chlorophenyl)-7-(4-chlorophenyl)-1-methyl-3H-purine-2,6-dione]
Second: C[C@@H](c1ccc(S(N)(=O)=O)cn1)n1c(=O)n(C)c(=O)c2c1nc(-c1ccccc1Cl)n2-c1ccc(Cl)cc1 [Compound 179, 6-[(1S)-1-[8-(2-chlorophenyl)-7-(4-chlorophenyl)-1-methyl-2,6-dioxopurin-3-yl]ethyl]pyridine-3-sulfonamide]
The IC50 of the first is higher: 1000 to 5000 nM for the first, under 100 nM for the second. The second is the more potent here.

Cn1c(=O)c2c(nc(-c3ccccc3Cl)n2-c2ccc(Cl)nc2)n(C2CCCCC2)c1=O [Compound 149, 8-(2-chlorophenyl)-7-(6-chloropyridin-3-yl)-3-cyclohexyl-1-methylpurine-2,6-dione] and Cn1c(=O)c2c(nc(-c3cccnc3Cl)n2-c2ccc(Cl)cc2)n(C2CCCCC2)c1=O [Compound 152, 7-(4-chlorophenyl)-8-(2-chloropyridin-3-yl)-3-cyclohexyl-1-methylpurine-2,6-dione] cannot be ordered by IC50: under 100 nM for the first, under 100 nM for the second.

First: C[C@@H](c1ccc(C(N)=O)cc1)n1c(=O)n(C[C@@H](O)CO)c(=O)c2c1nc(-c1ccccc1Cl)n2-c1ccc(Cl)cc1 [Compound 151]
Second: C[C@@H](CO)NC(=O)c1ccc(Cn2c(=O)n(C)c(=O)c3c2nc(-c2ccccc2Cl)n3-c2ccc(Cl)cc2)nc1 [Compound 160]
The IC50 of the first is higher: 100 to 1000 nM for the first, under 100 nM for the second.

CS(=O)(=O)c1ccc(Cn2c(=O)n(CC(N)=O)c(=O)c3c2nc(-c2ccccc2Cl)n3-c2ccc(Cl)cc2)nc1 [Compound 154] and CS(=O)(=O)c1ccc(Cn2c(=O)n(CC(N)=O)c(=O)c3c2nc(-c2ccccc2Cl)n3-c2ccc(Cl)cc2)cc1 [Compound 155, 2-[8-(2-chlorophenyl)-7-(4-chlorophenyl)-3-[(4-methanesulfonylphenyl)methyl]-2,6-dioxopurin-1-yl]acetamide] cannot be ordered by IC50: under 100 nM for the first, under 100 nM for the second.

CS(=N)(=O)c1ccc(Cn2c(=O)n(CC(N)=O)c(=O)c3c2nc(-c2ccccc2Cl)n3-c2ccc(Cl)cc2)cc1 (stereo not shown) [Compound 156, 2-[8-(2-chlorophenyl)-7-(4-chlorophenyl)-3-([4-[imino(methyl)oxo-lambda6-sulfanyl]phenyl]methyl)-2,6-dioxopurin-1-yl]acetamide] and NS(=O)(=O)Cn1c(=O)c2c(nc(-c3ccccc3Cl)n2-c2ccc(Cl)cc2)n(Cc2ccc(Cl)cn2)c1=O [Compound 169, [8-(2-chlorophenyl)-7-(4-chlorophenyl)-3-[(5-chloropyridin-2-yl)methyl]-2,6-dioxopurin-1-yl]methanesulfonamide] cannot be ordered by IC50: under 100 nM for the first, under 100 nM for the second.

NC(=O)Cn1c(=O)c2c(nc(-c3ccccc3Cl)n2-c2ccc(Cl)cc2)n(CC2(F)CCOCC2)c1=O [Compound 157] and NC(=O)Cn1c(=O)c2c(nc(-c3ccccc3Cl)n2-c2ccc(Cl)cc2)n(CC2(O)CCOCC2)c1=O [Compound 168, 2-[8-(2-chlorophenyl)-7-(4-chlorophenyl)-3-[(4-hydroxyoxan-4-yl)methyl]-2,6-dioxopurin-1-yl]acetamide] cannot be ordered by IC50: under 100 nM for the first, under 100 nM for the second.

C[C@H](CO)NC(=O)c1ccc(Cn2c(=O)n(C)c(=O)c3c2nc(-c2ccccc2Cl)n3-c2ccc(Cl)cc2)nc1 [Compound 161] and Cn1c(=O)c2c(nc(-c3ccccc3Cl)n2-c2ccc(Cl)cc2)n(Cc2ccc(C(=O)NCC(C)(C)O)cn2)c1=O [Compound 166] cannot be ordered by IC50: under 100 nM for the first, under 100 nM for the second.

Cn1c(=O)c2c(nc(-c3ccccc3Cl)n2-c2ccc(Cl)cc2)n(Cc2ccc(C(=O)NCC3(O)CC3)cn2)c1=O [Compound 162] and Cn1c(=O)c2c(nc(-c3ccccc3Cl)n2-c2ccc(Cl)cc2)n(Cc2ccc(C(=O)NC3CCOC3)cn2)c1=O (stereo not shown) [Compound 167] cannot be ordered by IC50: under 100 nM for the first, under 100 nM for the second.

First: NC(=O)Cn1c(=O)c2c(nc(-c3ncccc3Cl)n2-c2ccc(Cl)cc2)n(CC2CCS(=O)(=O)CC2)c1=O [Compound 163, 2-[7-(4-chlorophenyl)-8-(3-chloropyridin-2-yl)-3-[(1,1-dioxo-1λ^6-thian-4-yl)methyl]-2,6-dioxopurin-1-yl]acetamide]
Second: NC(=O)Cn1c(=O)c2c(nc(-c3ccc(F)cc3Cl)n2-c2ccc(Cl)cc2)n(CC2CCS(=O)(=O)CC2)c1=O [Compound 173]
The IC50 of the first is higher: 1000 to 5000 nM for the first, under 100 nM for the second. The second is the more potent here.

First: NC(=O)Cn1c(=O)c2c(nc(-c3ccc(F)cc3F)n2-c2ccc(Cl)cc2)n(CC2CCS(=O)(=O)CC2)c1=O [Compound 172, 2-[7-(4-chlorophenyl)-8-(2,4-difluorophenyl)-3-[(1,1-dioxo-1λ^6-thian-4-yl)methyl]-2,6-dioxopurin-1-yl]acetamide]
Second: C[C@H](Cn1c(=O)c2c(nc(-c3ccccc3Cl)n2-c2ccc(Cl)cc2)n(CC2CCS(=O)(=O)CC2)c1=O)C(N)=O [Compound 175]
The IC50 of the first is higher: 100 to 1000 nM for the first, under 100 nM for the second. The second is the more potent here.

C[C@H](c1ccc(S(N)(=O)=O)cn1)n1c(=O)n(C)c(=O)c2c1nc(-c1ccccc1Cl)n2-c1ccc(Cl)cc1 [Compound 180, 6-[(1R)-1-[8-(2-chlorophenyl)-7-(4-chlorophenyl)-1-methyl-2,6-dioxopurin-3-yl]ethyl]pyridine-3-sulfonamide] was tested, and the IC50 was under 100 nM.
